In US5534416A, “Fluorescent viability assay using cyclic-substituted unsymmetrical cyanine dyes” (Molecular Probes, Inc., priority 1993, dated 1996):

Experiments:
[1] = system: calf thymus DNA; conditions: Table 5; bound to excess calf thymus DNA (50 bp/dye); cited from earlier work
[2] = system: nucleic acids; test: Excitation/emission maxima of dyes complexed with nucleic acids; assay type: physicochemical; design: key: wavelength in nm; conditions: Table 2; dye complexed with nucleic acids
From the text: Dye I is lightly colored and is virtually non-fluorescent when diluted in aqueous solution according to the method of the invention. Dye I is highly membrane-permeant and labels all cells, whether live or dead. When Dye I binds with intracellular nucleic acid polymers such as DNA and RNA, the resultant dye-nucleic acid complex becomes extremely fluorescent upon illumination. The quantum yield of the preferred Dye I/DNA complex is greater than 0.02, typically greater than 0.1, preferably greater than 0.2, and more preferably greater than 0.3. Typically, Dye I combines with intracellular nucleic acids to give a green or red fluorescence. When excited at a wavelength between about 300 nm and about 500 nm, the dyes complexed with nucleic acids have an emission maximum between about 500 and about 610 nm (see Table 2). Preferably, Dye I complexed with nucleic acids has an emission maximum of between about 500 nm and about 535 nm, resulting in a true green fluorescent signal in cells of the sample where Dye I is present alone.

[3] = system: DNA; test: Quantum yield of dye on DNA versus fluorescein; assay type: physicochemical; conditions: Table 2; Tris buffered saline pH 10; fluorescein assumed 0.92
From the text: ^ Quantum yield (QY) of dye on DNA (standard solution in Tris buffere
saline adjusted to pH 10) in comparison with fluorescein, which is assume
to have a quantum yield of 0.92 under the test conditions.
Factors such as degree of fluorescence enhancement with nucleic acid binding, self quenching, molar extinction coefficient, membrane permeability, intracellular partitioning, nucleic acid binding affinity, and quantum yield contribute to the overall fluorescence of nucleic acid stains in cells. Enhanced cell fluorescence obtained with Dye I is related to unexpected properties other than quantum yield alone. Quantum yield is determined as described above (foot note to Table 2). Normalized quantum yield is determined to illustrate the fold-change in quantum yield of Dye I compared with thiazole orange, a related cell-permeant dye. The normalized fluorescence values represent the quantum yield of each dye divided by the quantum yield of thiazole orange. Fluorescence per cell is also scaled to thiazole orange values for both E. coli and S. aureus to allow direct comparison between relative (normalized) quantum yield and relative (normalized) fluorescence/cell.

Row | Compound | EM max [2] | EX max [2] | QY (DNA) [3] | EM max [1] | EX max [1]
1 | C[n+]1c(C=CC=C2C=CN(CCC[N+](C)(C)CCC[N+](C)(C)CCCN3C=CC(=CC=Cc4oc5ccccc5[n+]4C)C=C3)C=C2)oc2ccccc21 [POPO-3] |  |  |  | 570 nm | 534 nm
2 | CN1C(=Cc2cc[n+](C3CCCCC3)c3ccccc23)Sc2ccccc21 [compound 542] | 527 | 510 |  |  | 
3 | COc1ccccc1N1C=CC(=Cc2sc3ccccc3[n+]2C)C=C1Cl [compound 616] | 510 | 471 |  |  | 
4 | CC[n+]1c(-c2ccccc2)c2cc(N=[N+]=[N-])ccc2c2ccc(N)cc21 [Ethidium monoazide] |  |  |  | 615 nm | 465 nm
5 | CCN1C(=Cc2cc(Cl)[n+](-c3ccccc3)c3ccccc23)Sc2ccccc21 [compound 200] | 759 | 739 |  |  | 
6 | C[n+]1c(C=C2C=CN(CCC[N+](C)(C)C)c3ccccc32)sc2ccccc21 [TO-PRO-1] |  |  |  | 531 nm | 515 nm
7 | C[n+]1c(C=CC=C2C=CN(CCC[N+](C)(C)C)c3ccccc32)sc2ccccc21 [TO-PRO-3] |  |  |  | 661 nm | 642 nm
8 | C[n+]1c(C=CC=C2C=CN(CCC[N+](C)(C)CCC[N+](C)(C)CCCN3C=CC(=CC=Cc4sc5ccccc5[n+]4C)C=C3)C=C2)sc2ccccc21 [BOBO-3] |  |  |  | 602 nm | 570 nm
9 | C[n+]1c(C=C2C=CN(c3ccccc3)C(Cl)=C2)sc2ccccc21 [compound 578] | 504 | 470 |  |  | 
10 | CC[N+](C)(CC)CCC[n+]1c(-c2ccccc2)c2cc(N)ccc2c2ccc(N)cc21 [Propidium iodide] |  |  |  | 617 nm | 536 nm
11 | C[n+]1c(C=C2C=CN(CCC[N+](C)(C)CCC[N+](C)(C)CCCN3C=CC(=Cc4sc5ccccc5[n+]4C)c4ccccc43)c3ccccc32)sc2ccccc21 [TOTO-1] |  |  |  | 533 nm | 514 nm
12 | C[n+]1c(C=CC=C2C=CN(CCC[N+](C)(C)CCC[N+](C)(C)CCCN3C=CC(=CC=Cc4sc5ccccc5[n+]4C)c4ccccc43)c3ccccc32)sc2ccccc21 [TOTO-3] |  |  |  | 660 nm | 642 nm
13 | C[n+]1c(C=C2C=CN(CCC[N+](C)(C)CCC[N+](C)(C)CCCN3C=CC(=Cc4oc5ccccc5[n+]4C)c4ccccc43)c3ccccc32)oc2ccccc21 [YOYO-1] |  |  |  | 509 nm | 491 nm
14 | CN1C=CC(=Cc2sc3ccccc3[n+]2C)c2cccc(-c3ccccc3)c21 [compound 72] | 535 | 515 | 0.026 |  | 
15 | C[n+]1c(C=CC=C2C=CN(CCC[N+](C)(C)CCC[N+](C)(C)CCCN3C=CC(=CC=Cc4oc5ccccc5[n+]4C)c4ccccc43)c3ccccc32)oc2ccccc21 [YOYO-3] |  |  |  | 631 nm | 612 nm
16 | C[n+]1c(C=C2C=Cc3ccccc3N2c2ccccc2)sc2ccccc21 [compound 64] | 523 | 450 |  |  | 
17 | C[n+]1c(C=CC=C2C=CN(CCC[N+](C)(C)C)C=C2)sc2ccccc21 [BO-PRO-3] |  |  |  | 599 nm | 575 nm
18 | CC[n+]1c(-c2ccccc2)c2cc(N)ccc2c2ccc(N)cc21 [Ethidium bromide] |  |  |  | 595 nm | 510 nm
19 | CN1C(=Cc2cc[n+](C3CCCCC3)c3ccccc23)Sc2ccccc21 [compound 73] | 525 | 508 | 0.31 |  | 
20 | C[n+]1c(C=C2C=C(Cl)N(C3CCCCC3)c3ccccc32)sc2ccccc21 [780 (Cl)] | 536 | 513 | 0.09 |  | 
21 | C[n+]1c(C=C2C=CN(CCC[N+](C)(C)CCC[N+](C)(C)CCCN3C=CC(=Cc4oc5ccccc5[n+]4C)C=C3)C=C2)oc2ccccc21 [POPO-1] |  |  |  | 456 nm | 434 nm
22 | C[n+]1c(C=C2C=CN(CCC[N+](C)(C)C)C=C2)oc2ccccc21 [PO-PRO-1] |  |  |  | 455 nm | 435 nm
23 | C[n+]1c(C=C2C=CN(CCC[N+](C)(C)C)c3ccccc32)oc2ccccc21 [YO-PRO-1] |  |  |  | 509 nm | 491 nm
24 | C[n+]1c(C=CC=C2C=CN(CCC[N+](C)(C)C)C=C2)oc2ccccc21 [PO-PRO-3] |  |  |  | 567 nm | 539 nm
25 | CSC1=CC(=Cc2sc3ccccc3[n+]2C)c2ccccc2N1C1CCCCC1 [780 (S)] |  |  | 0.31 |  | 
26 | C[n+]1c(C=CC=C2C=CN(CCC[N+](C)(C)C)c3ccccc32)oc2ccccc21 [YO-PRO-3] |  |  |  | 631 nm | 612 nm
27 | CCCCc1cc(C=C2Sc3ccccc3N2C)c2ccccc2[n+]1-c1cccs1 [compound 71] | 526 | 508 | 0.31 |  | 
28 | COc1ccc(N2C(Cl)=CC(=Cc3sc4ccccc4[n+]3C)c3ccccc32)cc1 [compound 582] | 533 | 516 |  |  | 

Further lines, with some results ahead:

Row | EM max [2] | EX max [2] | QY (DNA) [3] | Compound | EM max [1] | EX max [1]
29 | 523 | 502 | 0.43 | CN1CCN(C2=CC(=Cc3sc4ccccc4[n+]3C)c3ccccc3N2c2ccccc2)CC1 [compound 856] |  | 
30 | 548 | 513 | 0.20 | CN1C(c2ccccc2)=CC(=Cc2sc3ccccc3[n+]2C)c2ccccc21 [compound 639] |  | 
31 | 508 | 489 | 0.12 | C[n+]1c(C=C2C=C(Cl)N(c3ccccc3)c3ccccc32)oc2ccccc21 [compound 633] |  | 
32 | 555 | 516 |  | C[n+]1c(C=C2C=C(Sc3ccccn3)N(c3ccccc3)c3ccccc32)sc2ccccc21 [compound 853] |  | 
33 | 611 | 570 |  | CCCCC1=CC(=CC=Cc2sc3ccccc3[n+]2C)C=CN1c1ccccc1 [compound 742] |  | 
34 | 507 | 487 | 0.52 | CCOC1=CC(=Cc2sc3ccccc3[n+]2C)c2ccccc2N1c1ccccc1 [compound 720] |  | 
35 | 508 | 486 | 0.58 | CC(C)OC1=CC(=Cc2sc3ccccc3[n+]2C)c2ccccc2N1c1ccccc1 [compound 764] |  | 
36 | 516 | 471 |  | C[n+]1c(C=C2C=CN(c3ccccc3)C=C2)sc2ccccc21 [compound 640] |  | 
37 |  |  | 0.65 | CCCN(CCC)C1=CC(=Cc2sc3ccccc3[n+]2C)c2ccccc2N1c1ccccc1 [compound 776] |  | 
38 | 523 | 505 | 0.52 | CN1C(C2CCCCC2)=CC(=Cc2sc3ccccc3[n+]2C)c2ccccc21 [compound 6104] |  | 
39 | 526 | 503 | 0.35 | CSC1=CC(=Cc2sc3ccccc3[n+]2C)c2ccccc2N1c1ccccc1 [compound 641] |  | 
40 | 518 | 495 |  | C[n+]1c(C=C2C=C(Oc3ccccc3)N(c3ccccc3)c3ccccc32)sc2ccccc21 [compound 835] |  | 
41 | 533 | 517 |  | C[n+]1c(C=C2C=C(Br)N(c3ccccc3)c3ccccc32)sc2ccccc21 [compound 774] |  | 
42 | 544 | 517 | 0.19 | C[n+]1c(C=C2C=C(c3ccccc3)N(c3ccccc3)c3ccccc32)sc2ccccc21 [compound 630] |  | 
43 | 520 | 483 |  | C[n+]1c(C=C2C=C(OS(=O)(=O)C(F)(F)F)N(c3ccccc3)c3ccccc32)sc2ccccc21 [compound 854] |  | 
44 | 518 | 494 | 0.51 | CN1C(=Cc2cc(N3CCOCC3)[n+](C)c3ccccc23)Sc2ccccc21 [compound 752] |  | 
45 | 507 | 486 |  | C[n+]1c(C=C2C=C(F)N(c3ccccc3)c3ccccc32)sc2ccccc21 [compound 834] |  | 
46 | 533 | 517 |  | CN1C(=Cc2cc(Cl)[n+](-c3cccs3)c3ccccc23)Sc2ccccc21 [compound 830] |  | 
47 | 611 | 586 |  | COC1=CC(=CC=Cc2oc3ccccc3[n+]2C)c2ccccc2N1c1ccccc1 [compound 672] |  | 
48 | 530 | 511 | 0.18 | COc1ccc2c(c1)N(c1ccccc1)C(Cl)=CC2=Cc1sc2ccccc2[n+]1C [compound 5103] |  | 
49 | 524 | 506 | 0.50 | C[n+]1c(C=C2C=C(C3CCCCC3)N(c3ccccc3)c3ccccc32)sc2ccccc21 [compound 765] |  | 
50 | 656 | 635 |  | CCCCC1=CC(=CC=Cc2sc3ccccc3[n+]2C)c2ccccc2N1c1ccccc1 [compound 621] |  | 
51 | 510 | 485 | 0.68 | CCN(CC)C1=CC(=Cc2sc3ccccc3[n+]2C)c2ccc(OC)cc2N1c1ccccc1 [compound 760] |  | 
